Experimental data reported in patent publication US20080260636A1, “STABILIZATION OF RADIONUCLIDE-CONTAINING COMPOSITIONS” (priority 2001, published 2008).
Where a SMILES comes first, the peptide text is derived from it. [ ]: non-standard residue; d: D form. The star is where a group is joined. X1 = NCCCC[C@H](NC(=O)[C@H](CS)NC(=O)[C@H](CCCCN)NC(=O)[C@@H](N)CNC(=O)C*)C(N)=O; NMeF = CN[C@@H](Cc1ccccc1)C(=O)O; hCys = N[C@@H](CCS)C(=O)O

Legend:
[1] = RCP of single vial kit (iodide formulated with targeting agent) reconstituted with Tc 99m; assay type: physicochemical
Method: (§1) KI affords stability to Tc-99m depreotide even when an oxidant (i.e. nitrate) is present in the eluate. Potassium iodide is well tolerated in humans unlike other stabilizing agents such as methionine or trolox. Methods for determining the RCP value are known in the art such as described in Cancer Res. (1998), May 1, 58(9):1850-1859, and J. Nucl. Med. (1996), June, 37(6): 1016-1022.
(§2) Further examples were conducted to show the stabilizing effect of the iodide ion for other complexes under varying conditions and with varying amounts and sources (KI and NaI) of iodide ion.

[2] = RCP of 2-vial kit (iodide added to formulated kit, then Tc-99m added); assay type: physicochemical; conditions: 2-vials
Method: as §1, §2

With `CC(C)[C@@H]1NC(=O)[C@H](CCCCN)NC(=O)[C@@H](Cc2c[nH]c3ccccc23)NC(=O)[C@H](Cc2ccc(O)cc2)NC(=O)[C@H](Cc2ccccc2)N(C)C(=O)[C@H](CCSCC(=O)NC[C@H](N)C(=O)N[C@@H](CCCCN)C(=O)N[C@@H](CS)C(=O)N[C@@H](CCCCN)C(N)=O)NC1=O` [Depreotide, depreotide] (cyclo([hCys](X1)[NMeF]Y[dW]KV)) the “% RCP” value ([1]; KI 4 mg, 5 h) was 89%, the “% RCP” value ([1]; KI 5 mg, 6 h) was 93% and the “% RCP” value ([1]; KI 6 mg, 5 h) was 95%. The “% RCP” value ([1]; NaI 8 mg, 6 h) was 91%, the “% RCP” value ([1]; NaI 10 mg, 5 h) was 93% and the “% RCP” value ([2]; KI 4 mg, 5 h) was 94%. For the same compound, the “% RCP” value ([2]; KI 6 mg, 5 h) was 94% and the “% RCP” value ([2]; KI 10 mg, 6 h) was 95%.
